Source: US9254269B2, “Method of managing hypercortisolemia, headache disorders, neuropathic pain and related disorders” (Indus Biotech Private Limited, priority 2011, dated 2016)

Experiments:
[1] = target: T1, 5-HT1A receptor (Mus musculus, UniProt Q64264); assay: Forced swim test, alone and after 5-HT1A receptor antagonist NAN-190; type: in vivo, Swiss albino mice; conditions: NAN-190 1 mg/kg p.o. alone
T1 construct: Male Swiss albino mice weighing 25-30 g were treated with antagonist of 5-HT1A receptor (NAN-190); from tissue; host or cells: whole living animal (male Swiss albino mice)
T1 sequence (Q64264 1-421): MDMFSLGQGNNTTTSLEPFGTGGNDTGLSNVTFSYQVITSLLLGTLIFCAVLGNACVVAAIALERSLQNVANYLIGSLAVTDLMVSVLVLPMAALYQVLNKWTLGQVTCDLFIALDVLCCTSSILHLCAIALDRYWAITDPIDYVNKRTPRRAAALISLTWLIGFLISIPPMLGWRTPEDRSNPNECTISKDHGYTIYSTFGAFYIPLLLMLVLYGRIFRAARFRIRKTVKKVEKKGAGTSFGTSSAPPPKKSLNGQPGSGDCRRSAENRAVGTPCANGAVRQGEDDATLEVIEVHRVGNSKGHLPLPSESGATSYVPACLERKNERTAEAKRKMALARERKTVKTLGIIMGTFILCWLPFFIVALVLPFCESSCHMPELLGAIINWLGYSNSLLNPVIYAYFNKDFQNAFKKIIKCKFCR
Protocol: The activity of the test composition was evaluated by first blocking the 5-HT1A receptor with an antagonist followed by treatment with the test composition. The activity was measured in terms of immobility time of the test animals subjected to forced swim test.
Procedure: Male Swiss albino mice weighing 25-30 g were treated with antagonist of 5-HT1A receptor (NAN-190) at 1 mg/kg (p.o.) followed by administration of test composition at either 10 mg/kg (p.o.) or 30 mg/kg (p.o.). One hour after treatment, the animals were subjected to forced swim test and the immobility time was measured. A cut-off time of 360 sec was used.

[2] = system: Nitroglycerine induced hyperalgesia in rats; assay: Tail flick response latency in nitroglycerine induced hyperalgesia, oral treatment; test composition 41% asiaticoside and 36% madecassoside; type: in vivo, Wistar rats; conditions: 20 mg/kg p.o.

## COc1ccccc1N1CCN(CCCCN2C(=O)c3ccccc3C2=O)CC1 [NAN-190]
[1]
  Immobility Time: 232.0 ± 1.63 s
[1]; vs Normal Control
  % Reduction in Immobility Time: −8.26%

## CC(C)=CCN1CCC2(C)c3cc(O)ccc3CC1C2C (stereo not drawn) [Pentazocine]
[2]; 0 min after treatment, 20 seconds cut off
  Response latency in tail flick: 8.42 ± 0.22
[2]; 30 min after treatment
  Response latency in tail flick: 15.27 ± 0.26
[2]; 60 min after treatment
  Response latency in tail flick: 15.23 ± 0.17
[2]; 90 min after treatment
  Response latency in tail flick: 15.78 ± 0.24
[2]; 120 min after treatment
  Response latency in tail flick: 15.50 ± 0.48
[2]; 180 min after treatment
  Response latency in tail flick: 15.18 ± 0.45
[2]; 240 min after treatment
  Response latency in tail flick: 15.03 ± 0.28
